Source: patent publication US10780069B2, “Use of GC-1 in transplant related population” (University of Pittsburgh—Of the Commonwealth System of …, priority 2017, dated 2020)

Assay: Serum ALT/bilirubin and hepatic histology after GC-1 or T3
Assay type: in vivo, mice
Method: All studies on mice were performed in strict accordance with Guidelines. Eight-week old male C57BL/6 male mice (Jackson/Charles River) were maintained on a standard laboratory basal diet (Test Diet) (n=4), or fed a T3-supplemented diet (4 mg/Kg of diet, Sigma Chemicals, St. Louis Mo.) (n=4). GC-1 was administered to the eight week-old male C57BL/6 male mice either via GC-1-supplemented diet (5 mg/Kg of diet, Medchem Express) for 8 days (n=4) or via daily intraperitoneal injections (IP) of GC-1 dissolved in DMSO (0.3 mg/kg/dose) for 8 days (n=7). As a control group for injections, DMSO alone was injected daily intraperitoneal (IP) for 8 days (n=5). Mice were sacrificed 24 hours after the last injection.

Cc1cc(OCC(=O)O)cc(C)c1Cc1ccc(O)c(C(C)C)c1 [GC-1, Sobetirome]
serum ALT or total bilirubin (GC-1 0.3 mg/Kg/dose daily IP 8 days, vs DMSO control): insignificant differences | hepatic histology (H&E) (GC-1 daily IP 8 days, vs DMSO control): normal hepatic histology | histological changes in the livers (T3 (4 mg/Kg of diet) or GC-1 (5 mg/Kg of diet) chow 8 days, vs basal diet): no histological changes
